Key:
[1] = DRUGMATRIX: ATPase, Na+/K+ enzyme inhibition (substrate: ATP); format: tissue-based, Sus scrofa, Heart; conditions: Not Active = under 50% inhibition at 10 µM
[2] = target: Delta-type opioid receptor (Homo sapiens, UniProt P41143); format: cell membranes, Membrane; conditions: hek293; note: in other assays of this panel Not Active means under 50% inhibition at 10 µM
Glycine receptor = Glycine receptor (Rattus norvegicus, UniProt P22771+P24524+P07727+P20781); format: cell membranes, Wistar, Spinal cord, Membrane; note: in other assays of this panel Not Active means under 50% inhibition at 10 µM
Endothelin-1 receptor = target: T1, Endothelin-1 receptor (Homo sapiens, UniProt P25101); format: cell membranes, Membrane; conditions: cho-k1; note: in other assays of this panel Not Active means under 50% inhibition at 10 µM
T1 sequence (P25101 whole entry): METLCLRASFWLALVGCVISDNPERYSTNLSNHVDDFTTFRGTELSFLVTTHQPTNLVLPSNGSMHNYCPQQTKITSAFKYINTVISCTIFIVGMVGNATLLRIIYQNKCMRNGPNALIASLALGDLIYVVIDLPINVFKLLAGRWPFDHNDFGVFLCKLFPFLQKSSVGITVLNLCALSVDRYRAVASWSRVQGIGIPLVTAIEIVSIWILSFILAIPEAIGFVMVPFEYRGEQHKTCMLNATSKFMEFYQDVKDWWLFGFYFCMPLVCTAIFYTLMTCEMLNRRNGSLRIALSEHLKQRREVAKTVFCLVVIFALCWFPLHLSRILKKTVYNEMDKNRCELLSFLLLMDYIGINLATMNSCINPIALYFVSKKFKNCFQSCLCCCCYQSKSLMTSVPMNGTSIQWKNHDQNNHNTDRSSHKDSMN

Melanocortin receptor 5 = Melanocortin receptor 5 (Homo sapiens, UniProt P33032); format: cell membranes, HEK293, Membrane; note: in other assays of this panel Not Active means under 50% inhibition at 10 µM
Sequence of Melanocortin receptor 5 (P33032 whole entry): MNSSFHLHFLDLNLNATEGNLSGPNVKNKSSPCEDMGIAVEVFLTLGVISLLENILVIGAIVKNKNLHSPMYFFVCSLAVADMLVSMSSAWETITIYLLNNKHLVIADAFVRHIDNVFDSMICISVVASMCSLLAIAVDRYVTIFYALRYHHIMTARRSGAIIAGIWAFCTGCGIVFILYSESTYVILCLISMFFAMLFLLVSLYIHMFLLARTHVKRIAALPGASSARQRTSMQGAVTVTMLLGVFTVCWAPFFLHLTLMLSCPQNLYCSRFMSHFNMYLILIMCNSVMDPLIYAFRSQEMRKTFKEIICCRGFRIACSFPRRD

[3] = DRUGMATRIX: Atrial Natriuretic Factor (ANF) radioligand binding (ligand: [125I] ANF (rat)); format: cell membranes, Cavia porcellus, Dunkin-Hartley, Adrenal gland, Membrane; conditions: Not Active = under 50% inhibition at 10 µM

Sequence of Delta-type opioid receptor (P41143 whole entry): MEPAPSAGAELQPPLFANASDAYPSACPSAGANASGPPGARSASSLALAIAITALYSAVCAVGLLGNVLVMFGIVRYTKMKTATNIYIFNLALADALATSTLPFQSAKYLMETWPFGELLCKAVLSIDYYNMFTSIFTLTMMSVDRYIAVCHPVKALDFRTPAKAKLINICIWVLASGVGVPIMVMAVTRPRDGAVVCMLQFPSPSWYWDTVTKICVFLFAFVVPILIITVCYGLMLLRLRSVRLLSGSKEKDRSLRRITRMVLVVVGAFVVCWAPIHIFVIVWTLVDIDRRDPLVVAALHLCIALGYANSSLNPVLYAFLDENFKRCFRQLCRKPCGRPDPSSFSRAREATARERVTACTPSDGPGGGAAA

Row | Compound | IC50 [1] | Ki [1] | IC50 [2] | IC50 (Glycine receptor) | IC50 (Endothelin-1 receptor) | IC50 (Melanocortin receptor 5; hek293) | IC50 [3] | Ki [3] | IC50 (Melanocortin receptor 5; read-out: IC50) [µM] | Ki (Melanocortin receptor 5; read-out: Ki) [µM] | Ki [2] | Ki (Glycine receptor) | Ki (Endothelin-1 receptor) | Ki (Melanocortin receptor 5; hek293)
1 | Cc1nnc2n1-c1ccc(Cl)cc1C(c1ccccc1)=NC2 [ALPRAZOLAM] | Not Active | Not Active | Not Active | Not Active | Not Active | Not Active | Not Active | Not Active | – | – | – | – | – | –
2 | COC(=O)CCc1ccc(OCC(O)CNC(C)C)cc1 (centres undefined) [ESMOLOL] | Not Active | Not Active | Not Active | Not Active | Not Active | Not Active | Not Active | Not Active | – | – | – | – | – | –
3 | COc1ccc2cc3[n+](cc2c1OC)CCc1cc2c(cc1-3)OCO2.[Cl-] [BERBERINE CHLORIDE] | Not Active | Not Active | Not Active | Not Active | Not Active | Not Active | Not Active | Not Active | – | – | – | – | – | –
4 | NC(=O)C[S+]([O-])C(c1ccccc1)c1ccccc1 (centres undefined) [MODAFINIL] | Not Active | Not Active | Not Active | Not Active | Not Active | Not Active | Not Active | Not Active | – | – | – | – | – | –
5 | CC(C)=CCC/C(C)=C/CO [GERANIOL] | Not Active | Not Active | Not Active | Not Active | Not Active | Not Active | Not Active | Not Active | – | – | – | – | – | –
6 | NCCCC(O)(P(=O)(O)O)P(=O)(O)O [ALENDRONIC ACID] | Not Active | Not Active | Not Active | Not Active | Not Active | Not Active | Not Active | Not Active | – | – | – | – | – | –
7 | C[C@@H]1CC[C@@]2(OC1)O[C@H]1[C@@H](O)[C@H]3[C@@H]4CC[C@H]5C[C@@H](O[C@@H]6O[C@H](CO)[C@H](O[C@@H]7O[C@H](CO)C(O)[C@H](O[C@@H]8OC[C@@H](O)[C@H](O)[C@H]8O)[C@H]7O[C@@H]7O[C@H](CO)[C@H](O)[C@H](O[C@@H]8O[C@H](CO)[C@@H](O)[C@H](O)[C@H]8O)[C@H]7O)[C@H](O)[C@H]6O)[C@H](O)C[C@]5(C)[C@H]4CC[C@]3(C)[C@H]1[C@@H]2C (some centres undefined) [DIGITONIN] | Not Active | Not Active | Not Active | Not Active | Not Active | – | Not Active | Not Active | 3.88 | 3.64 | – | – | – | –
8 | O=C1CN=C(c2ccccc2Cl)c2cc([N+](=O)[O-])ccc2N1 [CLONAZEPAM] | Not Active | Not Active | Not Active | Not Active | Not Active | Not Active | Not Active | Not Active | – | – | – | – | – | –
9 | AURANOFIN | Not Active | Not Active | Not Active | Not Active | Not Active | Not Active | Not Active | Not Active | – | – | Not Active | Not Active | Not Active | Not Active
10 | COC(=O)Nc1nc2ccc(C(=O)c3cccs3)cc2[nH]1 [NOCODAZOLE] | Not Active | Not Active | Not Active | Not Active | Not Active | Not Active | Not Active | Not Active | – | – | – | – | – | –
11 | C[C@H]1O[C@@H](n2cc(F)c(=O)[nH]c2=O)[C@H](O)[C@@H]1O [DOXIFLURIDINE] | Not Active | Not Active | Not Active | Not Active | Not Active | Not Active | Not Active | Not Active | – | – | – | – | – | –
12 | CC(C(=O)O)c1ccc2oc(-c3ccc(Cl)cc3)nc2c1 (centres undefined) [BENOXAPROFEN] | Not Active | Not Active | Not Active | Not Active | Not Active | Not Active | Not Active | Not Active | – | – | – | – | – | –
13 | GADOPENTETATE DIMEGLUMINE | Not Active | Not Active | Not Active | Not Active | Not Active | Not Active | Not Active | Not Active | – | – | Not Active | Not Active | Not Active | Not Active
14 | Nc1ccc2c3c(cccc13)C(=O)NC2=O | Not Active | Not Active | Not Active | Not Active | Not Active | Not Active | Not Active | Not Active | – | – | – | – | – | –
15 | C[n+]1ccccc1/C=N/O.[Cl-] [PRALIDOXIME CHLORIDE] | Not Active | Not Active | Not Active | Not Active | Not Active | Not Active | Not Active | Not Active | – | – | – | – | – | –
16 | NNc1nncc2ccccc12 [HYDRALAZINE] | Not Active | Not Active | Not Active | Not Active | Not Active | Not Active | Not Active | Not Active | – | – | – | – | – | –
17 | O=c1cnn([C@@H]2O[C@H](CO)[C@@H](O)[C@H]2O)c(=O)[nH]1 [6-AZAURIDINE] | Not Active | Not Active | Not Active | Not Active | Not Active | Not Active | Not Active | Not Active | – | – | – | – | – | –
18 | Cn1c(=O)c2c(ncn2CC(O)CO)n(C)c1=O (centres undefined) [DYPHYLLINE] | Not Active | Not Active | Not Active | Not Active | Not Active | Not Active | Not Active | Not Active | – | – | – | – | – | –
19 | O=c1cc(N2CCOCC2)oc2c(-c3ccccc3)cccc12 [LY-294002] | Not Active | Not Active | Not Active | Not Active | Not Active | Not Active | Not Active | Not Active | – | – | – | – | – | –
20 | C[C@@H]1C[C@H]2[C@@H]3CCC4=CC(=O)C=C[C@]4(C)[C@@]3(F)[C@@H](O)C[C@]2(C)[C@H]1C(=O)CO [DESOXIMETASONE] | Not Active | Not Active | Not Active | Not Active | Not Active | Not Active | Not Active | Not Active | – | – | – | – | – | –
21 | CC(C)(C)NC(=O)[C@H]1CC[C@H]2[C@@H]3CC[C@H]4NC(=O)C=C[C@]4(C)[C@H]3CC[C@]12C [FINASTERIDE] | Not Active | Not Active | Not Active | Not Active | Not Active | Not Active | Not Active | Not Active | – | – | – | – | – | –
22 | CCn1cc(C(=O)O)c(=O)c2cnc(N3CCCC3)nc21 [PIROMIDIC ACID] | Not Active | Not Active | Not Active | Not Active | Not Active | Not Active | Not Active | Not Active | – | – | – | – | – | –
23 | CC1(C)S[C@@H]2[C@H](NC(=O)[C@H](N)c3ccccc3)C(=O)N2[C@H]1C(=O)O [AMPICILLIN] | Not Active | Not Active | Not Active | Not Active | Not Active | Not Active | Not Active | Not Active | – | – | – | – | – | –
24 | CCN(CC)CCOCCC1=CCC2CC1C2(C)C (centres undefined) [MYRTECAINE] | Not Active | Not Active | Not Active | Not Active | Not Active | Not Active | Not Active | Not Active | – | – | – | – | – | –
25 | COC(=O)Nc1nc2ccc([S+]([O-])c3ccccc3)cc2[nH]1 (centres undefined) [OXFENDAZOLE] | Not Active | Not Active | Not Active | Not Active | Not Active | Not Active | Not Active | Not Active | – | – | – | – | – | –
26 | CC[C@H](C)[C@H]1O[C@]2(C=C[C@@H]1C)C[C@@H]1C[C@@H](C/C=C(\C)[C@@H](O[C@H]3C[C@H](OC)[C@@H](O[C@H]4C[C@H](OC)[C@@H](O)[C@H](C)O4)[C@H](C)O3)[C@@H](C)/C=C/C=C3\CO[C@@H]4[C@H](O)C(C)=C[C@@H](C(=O)O1)[C@]34O)O2.CO[C@H]1C[C@H](O[C@H]2[C@H](C)O[C@@H](O[C@@H]3/C(C)=C/C[C@@H]4C[C@@H](C[C@]5(C=C[C@H](C)[C@@H](C(C)C)O5)O4)OC(=O)[C@@H]4C=C(C)[C@@H](O)[C@H]5OC/C(=C\C=C\[C@@H]3C)[C@]54O)C[C@@H]2OC)O[C@@H](C)[C@@H]1O [ABAMECTIN] | Not Active | Not Active | Not Active | – | Not Active | Not Active | Not Active | Not Active | – | – | – | – | – | –
27 | CC(=O)O[C@H]1C(=O)[C@@]2(C)[C@H]([C@H](OC(=O)c3ccccc3)[C@]3(O)C[C@H](OC(=O)[C@H](O)[C@@H](NC(=O)c4ccccc4)c4ccccc4)C(C)=C1C3(C)C)[C@]1(OC(C)=O)CO[C@@H]1C[C@@H]2O [PACLITAXEL] | Not Active | Not Active | – | Not Active | Not Active | – | Not Active | Not Active | 17.1 | 16.1 | – | – | – | –
